Where a name gives a salt, the structure may show the parent alone. Read-outs that look alike come from different tables or passages of the source.
Target: T1, human A3AR (Homo sapiens, UniProt P0DMS8)
T1 construct: expressed in transfected cells
T1 sequence (P0DMS8 1-318): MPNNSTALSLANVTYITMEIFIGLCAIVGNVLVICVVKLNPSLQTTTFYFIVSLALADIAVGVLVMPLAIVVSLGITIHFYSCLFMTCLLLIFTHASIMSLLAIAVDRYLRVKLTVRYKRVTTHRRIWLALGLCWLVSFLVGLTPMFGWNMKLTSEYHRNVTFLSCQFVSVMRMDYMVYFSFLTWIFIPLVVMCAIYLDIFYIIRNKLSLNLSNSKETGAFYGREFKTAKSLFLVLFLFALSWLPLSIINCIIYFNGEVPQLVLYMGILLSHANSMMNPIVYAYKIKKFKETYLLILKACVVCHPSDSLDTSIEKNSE
Assay: LOPAC library primary screen: single concentration (10 μM) inhibition of 25 nM CA200645 binding, PHERAstar FS

[1] = compounds tested at 10 µM, % of control wells (1% DMSO and 25 nM CA200645), whole live cells expressing the A3AR, mean ± SD, three experiments in duplicate

SMILES | % 25 nM CA200645 binding [%] | other results
OC[C@H]1O[C@@H](n2cnc3c(NC4CCCC4)ncnc32)[C@H](O)[C@@H]1O [N6-Cyclopentyladenosine] | 69.6 ± 6.1 | –
C[N+]1(C)CCC(OC(=O)C(c2ccccc2)c2ccccc2)CC1.[I-] [4-DAMP methiodide] | 84.9 ± 19.8 | –
Cc1ccc(S(=O)(=O)NC(=O)NN2CCCCCC2)cc1 [Tolazamide] | 109.2 ± 9.0 | –
N=C(N)NC(=N)Nc1ccccc1 [1-Phenylbiguanide] | 96.2 ± 2.3 | –
CCCCC1(C2CCCC2)Cc2cc(OCC(=O)O)c(Cl)c(Cl)c2C1=O (stereo in doubt) [R(+)-Butylindazone] | 91.2 ± 11.8 | –
CC(C)c1cccc(C(C)C)c1N1C(=O)c2ccc(O)cc2C1=O [5HPP-33] | 91.1 ± 9.2 | –
CN(CCCOc1ccc(Cc2ccccc2)cc1)CCC(=O)O.Cl [SC-57461A] | 83.2 ± 13.1 | –
CC(C)C[C@H](NC(=O)[C@H](O)[C@H](N)Cc1ccccc1)C(=O)O [Epibestatin hydrochloride] | 102.9 ± 13.0 | –
Cl.Nc1c2c(nc3ccccc13)CCCC2 | 100.2 ± 15.6 | –
CNCC(O)c1ccc(O)cc1 (racemic) [(±)-Synephrine] | 90.7 ± 28.9 | –
Cc1ncc(CNC(=O)N(CCCl)N=O)c(N)n1 [Nimustine hydrochloride] | 95.2 ± 13.6 | –
CN1[C@@H]2CC[C@H]1C[C@@H](OC(c1ccccc1)c1ccccc1N)C2 (stereo partly shown) [Aminobenztropine] | 92.7 ± 5.2 | –
CO/N=C(\C(=O)N[C@@H]1C(=O)N2C(C(=O)O)=C(CSc3nc(=O)c(=O)[nH]n3C)CS[C@H]12)c1csc(N)n1 [Ceftriaxone sodium] | 100.5 ± 11.9 | –
COc1ccccc1N1CCN(CCCNc2c(C)c(=O)n(C)c(=O)n2C)CC1 [Urapidil, 5-Methyl-] | 83.5 ± 22.8 | –
CCCCCCCC/C=C\CCCCCCCC(=O)O [Oleic Acid] | 98.9 ± 11.8 | –
C[C@]12C=CC(=O)C=C1CC[C@@H]1C2=CC[C@]2(C)[C@@H](C(=O)CN3CCN(c4cc(N5CCCC5)nc(N5CCCC5)n4)CC3)CC[C@@H]12.O=C(O)/C=C\C(=O)O [U-74389G maleate] | 36.9 ± 10.8 | –
CN(C)C(=O)[C@H](O)[C@H](Cc1ccccc1)NC(=O)c1cc2cc(Cl)ccc2[nH]1 [CP-91149] | 87.6 ± 14.6 | –
NS(=O)(=O)c1cccc2c1c([N+](=O)[O-])cc1nc([O-])c([O-])nc12.[Na+].[Na+] [NBQX disodium] | 94.5 ± 3.8 | –
CC#C[C@]1(O)CC[C@H]2[C@@H]3CCC4=CC(=O)CCC4=C3[C@@H](c3ccc(N(C)C)cc3)C[C@@]21C [Mifepristone] | 83.5 ± 5.2 | –
CCCCS(=N)(=O)CC[C@H](N)C(=O)O (stereo partly drawn) [L-Buthionine-sulfoximine] | 98.1 ± 5.3 | –
CNc1ccc2oc(C[C@H]3O[C@@]4(CC[C@H]3C)O[C@H]([C@H](C)C(=O)c3ccc[nH]3)[C@H](C)C[C@H]4C)nc2c1C(=O)O [Calcimycin] | 38.9 ± 3.3 | –
CCN1CCC[C@H]1CNC(=O)c1cc(S(N)(=O)=O)ccc1OC [(-)-Sulpiride] | 103.0 ± 8.9 | –
N[C@@H]1[C@H]2CN(c3nc4c(cc3F)c(=O)c(C(=O)O)cn4-c3ccc(F)cc3F)C[C@@H]12 [Trovafloxacin mesylate] | 94.4 ± 17.2 | –

SMILES | % 25 nM CA200645 binding [%] | other results
C[C@@H]1O[C@@H]1P(=O)(O)O [Phosphomycin disodium] | 98.9 ± 12.7 | –
C=C(C)[C@H]1Cc2c(ccc3c2O[C@@H]2COc4cc(OC)c(OC)cc4[C@@H]2C3=O)O1 [Rotenone] | 92.4 ± 12.1 | –
CC(C)NC[C@@H](O)c1ccc(O)c(O)c1.O=C(O)C(O)C(O)C(=O)O [S(+)-Isoproterenol (+)-bitartrate] | 101.2 ± 2.4 | –
C[N+](C)(C)CCOC(=O)CBr.[Br-] [Bromoacetylcholine bromide] | 95.1 ± 8.8 | –
CCc1cccc(N(C)C(N)=Nc2cccc3ccccc23)c1 [CNS-1102] | 102.3 ± 11.4 | –
COc1ccc(NC=O)c(C(=O)CCNC(C)=O)c1 [AFMK] | 100.0 ± 2.7 | –
CC(N)Cc1c[nH]c2ccc(O)cc12.O=C(O)/C=C\C(=O)O (stereo not drawn) [alpha-Methyl-5-hydroxytryptamine maleate] | 115.5 ± 12.2 | –
COC(=O)C1=C(C)NC(C)=C(C(=O)OC(C)(C)CN(C)CCC(c2ccccc2)c2ccccc2)C1c1cccc([N+](=O)[O-])c1.COC(=O)C1=C(C)NC(C)=C(C(=O)OC(C)(C)CN(C)CCC(c2ccccc2)c2ccccc2)C1c1cccc([N+](=O)[O-])c1.Cl.Cl.O (stereo not shown) [Lercanidipine hydrochloride hemihydrate] | 82.9 ± 16.7 | –
N[C@@H]1C[C@H]1c1ccccc1 [Tranylcypromine hydrochloride] | 100.1 ± 11.2 | –
O=C(CCCN1CC=C(n2c(=O)[nH]c3ccccc32)CC1)c1ccc(F)cc1 [Droperidol] | 101.2 ± 18.5 | –
Cl.NCCNS(=O)(=O)c1cccc2c(Cl)cccc12 [A3 hydrochloride] | 95.5 ± 8.6 | –
CCCCCCCCCCCCCCSCC(=O)O [Tetradecylthioacetic acid] | – | % 25 nM CA200645 binding [1]: 101.3 ± 12.1%
Nc1nc(N)c(N=O)c(OCC2CCCCC2)n1 [NU6027] | 80.6 ± 9.9 | –
Nc1c2c(nc3ccccc13)CCCC2O.O=C(O)/C=C\C(=O)O (stereo not shown) [Hydroxytacrine maleate] | 108.6 ± 13.0 | –
CCCC(CCC)C(=O)O[C@H]1C[C@H]2CC[C@@H](C1)[N+]2(C)C [Anisotropine methyl bromide] | 97.1 ± 12.3 | –
CC(C)c1ccc2c(c1)c(SC(C)(C)C)c(CC(C)(C)C(=O)O)n2Cc1ccc(Cl)cc1 [MK-886] | 98.7 ± 12.2 | –
Nc1nc(OCc2ccccc2)c2nc[nH]c2n1 [O6-benzylguanine] | 65.0 ± 6.0 | –
O=C1c2c(O)cc(O)cc2O[C@H](c2ccc(O)c(O)c2)[C@H]1O (racemic) [(±)-Taxifolin] | 111.1 ± 7.5 | –
NC(=O)CN1CC(O)CC1=O (stereo not shown) [Oxiracetam] | 97.9 ± 12.4 | –
CCC(NC(C)C)C(O)c1ccc(O)c(O)c1.CS(=O)(=O)O (stereo not shown) [Isotharine mesylate] | 102.1 ± 6.6 | –
Cc1cnc(NC(=O)C2=C(O)c3ccccc3S(=O)(=O)N2C)s1 [Meloxicam sodium] | 93.6 ± 6.8 | –
Cc1cc(NC2CCCCC2)nc(-n2nc(C)cc2C)n1 [CyPPA] | 68.8 ± 15.9 | –
COc1cc2c(cc1OC)-c1c/c(=N\c3c(C)cc(C)cc3C)n(C)c(=O)n1CC2 [Trequinsin hydrochloride] | – | % 25 nM CA200645 binding (% of control wells (1% DMSO and 25 nM CA200645), compounds at 10 µM, whole live cells expressing the A3AR, mean ± SD, three experiments in duplicate): 88.3 ± 40.0%

SMILES | % 25 nM CA200645 binding [%] | other results
NCCc1c[nH]c2ccc(C(N)=O)cc12.O=C(O)/C=C\C(=O)O [5-Carboxamidotryptamine maleate] | 85.7 ± 14.5 | –
Cc1nnc(SCC2=C(C(=O)O)N3C(=O)[C@@H](NC(=O)Cn4cnnn4)[C@H]3SC2)s1 [Cefazolin sodium] | 96.3 ± 4.6 | –
CC(C)NCC(O)COc1cccc2[nH]ccc12 (stereo not drawn) [S(-)-Pindolol] | 98.0 ± 8.4 | –
O=C(O)c1ccccc1Nc1cccc(OCc2ccc3ccccc3n2)c1 [SR 2640] | – | % 25 nM CA200645 binding [1]: 103.1 ± 17.1%
CNCCC(Oc1ccc(C(F)(F)F)cc1)c1ccccc1 (stereo not shown) [Fluoxetine hydrochloride] | 102.9 ± 7.1 | –
CSc1ccc2c(c1)N(CCC1CCCCN1C)c1ccccc1S2 (stereo not shown) [Thioridazine hydrochloride] | 102.5 ± 9.6 | –
COc1cc(SC)ccc1C(=O)N1CCC(Cc2ccccc2)CC1 [JX401] | 84.6 ± 8.9 | –
C#CCN(C)Cc1ccccc1 [Pargyline hydrochloride] | 102.9 ± 12.8 | –
COc1nc(C)nc(Cl)c1NC1=NCCN1.Cl [Moxonidine hydrochloride] | 99.1 ± 3.2 | –
Cl.NC1(C(=O)O)CCCCC1 | 108.3 ± 1.1 | –
COC(=O)Nc1nc2ccc(C(=O)c3cccs3)cc2[nH]1 [Nocodazole] | 79.0 ± 5.7 | –
O=C([O-])c1cc2cc(Cc3cccnc3)ccc2o1.[Na+] [Furegrelate sodium] | 89.9 ± 4.6 | –
O=c1c2ccccc2[nH]c(=S)n1CCN1CCC(=C(c2ccc(F)cc2)c2ccc(F)cc2)CC1 [Diacylglycerol Kinase Inhibitor II] | 51.5 ± 9.4 | –
CC(C)=CCOc1c2occc2cc2ccc(=O)oc12 [Imperatorin] | 47.6 ± 2.3 | –
CCC1(c2ccccc2)C(=O)NCNC1=O [Primidone] | 96.1 ± 4.9 | –
O=C1NCC2(CCN(CCc3ccccc3)CC2)O1 [Fenspiride hydrochloride] | 81.2 ± 5.0 | –
CCCn1c(=O)c2c(ncn2C)n(CCC)c1=O [1,3-Dipropyl-7-methylxanthine] | 102.9 ± 21.6 | –
C[C@H]1C[C@H]2[C@@H]3CCC4=CC(=O)C=C[C@]4(C)[C@@]3(Cl)[C@@H](O)C[C@]2(C)[C@@]1(O)C(=O)CO [Beclomethasone] | 93.7 ± 1.6 | –
Cn1c(=O)c2[nH]c(C3CCCC3)nc2n(C)c1=O [8-Cyclopentyl-1,3-dimethylxanthine] | 96.1 ± 9.6 | –
O=C(O)CCCCC1CCSS1 (racemic) [(±)-alpha-Lipoic Acid] | 99.7 ± 5.6 | –
Cl.Fc1ccc(CN(C2=NCCN2)c2c(Cl)cccc2Cl)cc1 [IMID-4F hydrochloride] | 97.3 ± 5.7 | –
